Results as given in patent EP0326331B1, “Substituted quinolines and cinnolines” (Dow AgroSciences LLC, priority 1988, dated 1989).

Assays:
Format in all cases: in vivo
[1] = tested on: Erysiphe graminis tritici (powdery mildew); experiment: Test 1 greenhouse foliar spray screen, powdery mildew on wheat; conditions: Blumeria graminis, foliar, Test 1, foliar spray on wheat; disease control rating at 400 ppm / 100 ppm; read-out: POWD MDEW
[2] = tested on: Pyricularia oryzae (rice blast); experiment: whole plant or invertebrate; conditions: Pyricularia oryzae, foliar, read-out: RICE BLAST, Test 1, foliar spray on rice; disease control rating at 400 ppm / 100 ppm
[3] = tested on: Puccinia recondita tritici (leaf rust); experiment: Test 1 greenhouse foliar spray screen, leaf rust on wheat; conditions: Puccinia recondita, foliar, Test 1, foliar spray on wheat; disease control rating at 400 ppm / 100 ppm
[4] = tested on: Botrytis cinerea (gray mold); experiment: Test 1 greenhouse foliar spray screen, gray mold on grape berries; conditions: Botrytis cinerea, foliar; Test 1, spray on grape berries; disease control rating at 400 ppm / 100 ppm
[5] = tested on: Pseudoperonospora cubensis (downy mildew); experiment: Test 1 greenhouse foliar spray screen, downy mildew on squash; conditions: Pseudoperonospora cubensis, foliar, Test 1, foliar spray on squash; disease control rating at 400 ppm / 100 ppm; read-out: DOWN MDEW
[6] = tested on: southern armyworm (Spodopetra eridania Cramer); experiment: Mite/insect screen, SAW; conditions: Spodoptera eridania, foliar, percent mortality, foliar spray on squash, read-out: SAW RESULTS %; for mortality at 200 ppm: rate 200 ppm; for mortality at 400 ppm: rate 400 ppm
Outline: (§1)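 Compounds dissolved in 50:50 acetone/alcohol containing sulfonate/nonionic emulsifier blends, then diluted with water to the indicated concentrations. Leaves sprayed on both surfaces to runoff at 10 psi and dried one hour. Percent mortality scored after standard exposure periods.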

[7] = tested on: Twospotted spider mites (Tetranychus urticae Koch); experiment: Mite/insect screen, SM; conditions: Tetranychus urticae, foliar, percent mortality, foliar spray on squash, read-out: SM RESULTS %; for mortality at 200 ppm: rate 200 ppm; for mortality at 400 ppm: rate 400 ppm
Outline: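 Activity is expressed as percent mortality at the indicated spray concentrations. Plants are sprayed to runoff on upper and lower leaf surfaces with aqueous dilutions of an acetone/alcohol emulsifiable formulation, then dried for one hour.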

[8] = tested on: melon aphids (Aphis gossypii Glover); experiment: Mite/insect screen, MA; conditions: Aphis gossypii, foliar, percent mortality, foliar spray on squash, read-out: MA RESULTS %; for mortality at 200 ppm: rate 200 ppm; for mortality at 400 ppm: rate 400 ppm
Outline: as §1

corn rootworm = experiment: Mite/insect screen, CRW; conditions: percent mortality, read-out: CRW RESULTS %; for mortality at 12 ppm: CRW rate 12.00 ppm; for mortality at 24 ppm: CRW rate 24.00 ppm
Outline: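 Compounds were dissolved in 50:50 acetone/alcohol containing sulfonate/nonionic emulsifier blends (23 g/L plus 13 g/L), then diluted with water to the test concentrations. Percent mortality was scored after standard exposure periods.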

SMILES: CCOc1ccc2nc(C)cc(OCCCOCc3ccccc3)c2c1 [Example 279, 6-ethoxy-2-methyl-4-[3-(phenylmethoxy)propoxy]quinoline]
- pest or weed control at 400 ppm [1]: 0 to 19%
- pest or weed control at 400 ppm [2]: 90 to 100%
- pest or weed control at 400 ppm [3]: 90 to 100%
- pest or weed control at 400 ppm [4]: 0 to 19%
- pest or weed control at 400 ppm [5]: 90 to 100%
- mortality at 200 ppm [6]: 0%
- mortality at 400 ppm [6]: 0%
- mortality at 200 ppm [7]: 0%
- mortality at 400 ppm [7]: 0%
- mortality at 200 ppm [8]: 0%
- mortality at 400 ppm [8]: 80%
- mortality at 12 ppm (corn rootworm): 0%
- mortality at 24 ppm (corn rootworm): 0%

SMILES: Clc1cccc2c(NCCc3cccc(Oc4ccccc4)c3)ccnc12 [Example 280, 8-chloro-N-[2-(3-phenoxyphenyl)ethyl]-4-quinolinamine]
- pest or weed control at 400 ppm [1]: 90 to 100%
- pest or weed control at 400 ppm [2]: 90 to 100%
- pest or weed control at 400 ppm [3]: 90 to 100%
- pest or weed control at 400 ppm [4]: 0 to 19%
- pest or weed control at 400 ppm [5]: 90 to 100%
- mortality at 200 ppm [6]: 60%
- mortality at 400 ppm [6]: 0%
- mortality at 200 ppm [7]: 0%
- mortality at 400 ppm [7]: 0%
- mortality at 200 ppm [8]: 0%
- mortality at 400 ppm [8]: 0%
- mortality at 12 ppm (corn rootworm): 0%
- mortality at 24 ppm (corn rootworm): 0%

SMILES: Clc1cccc2c(NCCCCc3ccccc3)ccnc12 [Example 281, 8-chloro-N-(4-phenylbutyl)-4-quinolinamine]
- pest or weed control at 400 ppm [1]: 20 to 89%
- pest or weed control at 400 ppm [2]: 90 to 100%
- pest or weed control at 400 ppm [3]: 20 to 89%
- pest or weed control at 400 ppm [4]: 0 to 19%
- pest or weed control at 400 ppm [5]: 90 to 100%
- mortality at 200 ppm [6]: 0%
- mortality at 400 ppm [6]: 0%
- mortality at 200 ppm [7]: 0%
- mortality at 400 ppm [7]: 0%
- mortality at 200 ppm [8]: 0%
- mortality at 400 ppm [8]: 0%
- mortality at 12 ppm (corn rootworm): 0%
- mortality at 24 ppm (corn rootworm): 0%

SMILES: Fc1cccc2c(OCCCc3ccc(Oc4ccccc4)cc3)ccnc12 [Example 282, 8-fluoro-4-[3-(4-phenoxyphenyl)propoxy]quinoline]
- pest or weed control at 400 ppm [1]: 0 to 19%
- pest or weed control at 400 ppm [2]: 20 to 89%
- pest or weed control at 400 ppm [3]: 0 to 19%
- pest or weed control at 400 ppm [4]: 0 to 19%
- pest or weed control at 400 ppm [5]: 0 to 19%
- mortality at 200 ppm [6]: 0%
- mortality at 400 ppm [6]: 0%
- mortality at 200 ppm [7]: 0%
- mortality at 400 ppm [7]: 0%
- mortality at 200 ppm [8]: 0%
- mortality at 400 ppm [8]: 0%
- mortality at 12 ppm (corn rootworm): 0%
- mortality at 24 ppm (corn rootworm): 0%

SMILES: CC(CNc1ccnc2cc(Cl)ccc12)c1ccc(Cl)cc1 (centres unmarked) [Example 283, 7-chloro-N-[2-(4-chlorophenyl)propyl]-4-quinolinamine]
- pest or weed control at 400 ppm [1]: 20 to 89%
- pest or weed control at 400 ppm [2]: 20 to 89%
- pest or weed control at 400 ppm [3]: 90 to 100%
- pest or weed control at 400 ppm [4]: 0 to 19%
- pest or weed control at 400 ppm [5]: 90 to 100%
- mortality at 200 ppm [6]: 0%
- mortality at 400 ppm [6]: 0%
- mortality at 200 ppm [7]: 0%
- mortality at 400 ppm [7]: 80%
- mortality at 200 ppm [8]: 80%
- mortality at 400 ppm [8]: 0%
- mortality at 12 ppm (corn rootworm): 0%
- mortality at 24 ppm (corn rootworm): 0%

SMILES: Fc1cccc2c(OCCCC(Br)CBr)ccnc12 (centres unmarked) [Example 284, 4-[(4,5-dibromopentyl)oxy]-8-fluoroquinoline]
- pest or weed control at 400 ppm [1]: 0 to 19%
- pest or weed control at 400 ppm [2]: 90 to 100%
- pest or weed control at 400 ppm [3]: 90 to 100%
- pest or weed control at 400 ppm [4]: 0 to 19%
- pest or weed control at 400 ppm [5]: 20 to 89%
- mortality at 200 ppm [6]: 0%
- mortality at 400 ppm [6]: 0%
- mortality at 200 ppm [7]: 0%
- mortality at 400 ppm [7]: 0%
- mortality at 200 ppm [8]: 0%
- mortality at 400 ppm [8]: 0%
- mortality at 12 ppm (corn rootworm): 0%
- mortality at 24 ppm (corn rootworm): 0%

SMILES: Fc1cccc2c(OCCCCCCCCOc3ccccc3)ccnc12 [Example 285, 8-fluoro-4-[(8-phenoxyoctyl)oxy]quinoline]
- pest or weed control at 400 ppm [1]: 0 to 19%
- pest or weed control at 400 ppm [2]: 0 to 19%
- pest or weed control at 400 ppm [3]: 0 to 19%
- pest or weed control at 400 ppm [4]: 0 to 19%
- pest or weed control at 400 ppm [5]: 0 to 19%
- mortality at 200 ppm [6]: 0%
- mortality at 400 ppm [6]: 0%
- mortality at 200 ppm [7]: 40%
- mortality at 400 ppm [7]: 0%
- mortality at 200 ppm [8]: 80%
- mortality at 400 ppm [8]: 0%
- mortality at 12 ppm (corn rootworm): 0%
- mortality at 24 ppm (corn rootworm): 0%

SMILES: Cc1cc(OCCc2ccc(C(C)(C)C)cc2)c2cc(Cl)ccc2n1 [Example 286, 6-chloro-2-methyl-4-[2-[4-(t-butyl)phenyl]ethoxy]quinoline]
- pest or weed control at 400 ppm [1]: 20 to 89%
- pest or weed control at 400 ppm [2]: 0 to 19%
- pest or weed control at 400 ppm [3]: 20 to 89%
- pest or weed control at 400 ppm [4]: 0 to 19%
- pest or weed control at 400 ppm [5]: 0 to 19%
- mortality at 200 ppm [6]: 0%
- mortality at 400 ppm [6]: 0%
- mortality at 200 ppm [7]: 0%
- mortality at 400 ppm [7]: 0%
- mortality at 200 ppm [8]: 0%
- mortality at 400 ppm [8]: 0%
- mortality at 12 ppm (corn rootworm): 0%
- mortality at 24 ppm (corn rootworm): 0%

SMILES: Fc1cccc2c(OCCCCCCOc3ccccc3)ccnc12 [Example 287, 8-fluoro-4-[(6-phenoxyhexyl)oxy]quinoline]
- pest or weed control at 400 ppm [1]: 0 to 19%
- pest or weed control at 400 ppm [2]: 0 to 19%
- pest or weed control at 400 ppm [3]: 20 to 89%
- pest or weed control at 400 ppm [4]: 0 to 19%
- pest or weed control at 400 ppm [5]: 90 to 100%
- mortality at 200 ppm [6]: 0%
- mortality at 400 ppm [6]: 0%
- mortality at 200 ppm [7]: 0%
- mortality at 400 ppm [7]: 0%
- mortality at 200 ppm [8]: 80%
- mortality at 400 ppm [8]: 0%
- mortality at 12 ppm (corn rootworm): 0%
- mortality at 24 ppm (corn rootworm): 0%

SMILES: CC(C)(CNc1ccnc2c(Cl)cccc12)c1ccccc1 [Example 288, 8-chloro-N-(2-methyl-2-phenylpropyl)-4-quinolinamine]
- pest or weed control at 400 ppm [1]: 0 to 19%
- pest or weed control at 400 ppm [2]: 20 to 89%
- pest or weed control at 400 ppm [3]: 0 to 19%
- pest or weed control at 400 ppm [4]: 0 to 19%
- pest or weed control at 400 ppm [5]: 20 to 89%
- mortality at 200 ppm [6]: 0%
- mortality at 400 ppm [6]: 0%
- mortality at 200 ppm [7]: 0%
- mortality at 400 ppm [7]: 0%
- mortality at 200 ppm [8]: 0%
- mortality at 400 ppm [8]: 0%
- mortality at 12 ppm (corn rootworm): 0%
- mortality at 24 ppm (corn rootworm): 0%

SMILES: CC(C)(CNc1ccnc2c(F)cccc12)c1ccccc1 [Example 289, 8-fluoro-N-(2-methyl-2-phenylpropyl)-4-quinolinamine]
- pest or weed control at 400 ppm [1]: 20 to 89%
- pest or weed control at 400 ppm [2]: 90 to 100%
- pest or weed control at 400 ppm [3]: 90 to 100%
- pest or weed control at 400 ppm [4]: 0 to 19%
- pest or weed control at 400 ppm [5]: 90 to 100%
- mortality at 200 ppm [6]: 0%
- mortality at 400 ppm [6]: 0%
- mortality at 200 ppm [7]: 0%
- mortality at 400 ppm [7]: 0%
- mortality at 200 ppm [8]: 0%
- mortality at 400 ppm [8]: 0%
- mortality at 12 ppm (corn rootworm): 0%
- mortality at 24 ppm (corn rootworm): 0%

SMILES: COc1ccc2nc(C)cc(NCCc3cccc(Oc4ccccc4)c3)c2c1 [Example 290, 6-methoxy-2-methyl-N-[2-(3-phenoxyphenyl)ethyl]-4-quinolinamine]
- pest or weed control at 400 ppm [1]: 0 to 19%
- pest or weed control at 400 ppm [2]: 90 to 100%
- pest or weed control at 400 ppm [3]: 20 to 89%
- pest or weed control at 400 ppm [4]: 0 to 19%
- pest or weed control at 400 ppm [5]: 90 to 100%
- mortality at 200 ppm [6]: 0%
- mortality at 400 ppm [6]: 0%
- mortality at 200 ppm [7]: 80%
- mortality at 400 ppm [7]: 0%
- mortality at 200 ppm [8]: 80%
- mortality at 400 ppm [8]: 0%
- mortality at 12 ppm (corn rootworm): 0%
- mortality at 24 ppm (corn rootworm): 0%

SMILES: Fc1cccc2c(NCCc3ccc(OCc4ccccc4)cc3)ccnc12 [Example 291, 8-fluoro-N-[2-[4-(phenylmethoxy)phenyl]ethyl]-4-quinolinamine]
- pest or weed control at 400 ppm [1]: 90 to 100%
- pest or weed control at 400 ppm [2]: 90 to 100%
- pest or weed control at 400 ppm [3]: 90 to 100%
- pest or weed control at 400 ppm [4]: 0 to 19%
- pest or weed control at 400 ppm [5]: 90 to 100%
- mortality at 200 ppm [6]: 0%
- mortality at 400 ppm [6]: 0%
- mortality at 200 ppm [7]: 0%
- mortality at 400 ppm [7]: 0%
- mortality at 200 ppm [8]: 100%
- mortality at 400 ppm [8]: 0%
- mortality at 12 ppm (corn rootworm): 0%
- mortality at 24 ppm (corn rootworm): 0%

SMILES: Fc1ccc2c(OCCOc3ccc(Br)cc3)ccnc2c1 [Example 292, 7-fluoro-4-[2-(4-bromophenoxy)ethoxy]quinoline]
- pest or weed control at 400 ppm [1]: 0 to 19%
- pest or weed control at 400 ppm [2]: 0 to 19%
- pest or weed control at 400 ppm [3]: 0 to 19%
- pest or weed control at 400 ppm [4]: 0 to 19%
- pest or weed control at 400 ppm [5]: 0 to 19%
- mortality at 200 ppm [6]: 0%
- mortality at 400 ppm [6]: 0%
- mortality at 200 ppm [7]: 0%
- mortality at 400 ppm [7]: 0%
- mortality at 200 ppm [8]: 30%
- mortality at 400 ppm [8]: 0%
- mortality at 12 ppm (corn rootworm): 0%
- mortality at 24 ppm (corn rootworm): 0%
